From patent US11123329B1, “Use of angiotensin II type 2 receptor agonist” (Vicore Pharma AB, priority 2020, dated 2021)

Key:
AT2R = details: in particular in inflamed lung tissue; cited from earlier work
ACE2 = details: in particular in inflamed lung tissue; cited from earlier work
acute lung injury = details: model of acute lung injury; cited from earlier work
E-cadherin expression = details: SAEMyoF
Text: The effect of C21 on E-cadherin expression was studied using the human disease model BioMAP® platform (fibrosis panel) with ELISA-based protein biomarker detection in a human small airway epithelial cell plus lung fibroblast (SAEMyoF) assay (a service provided by Eurofins DiscoverX Corporation, Fremont, Calif., USA).

[1] = end of treatment, 100 mg b.i.d. oral, 7 days on top of standard of care, n=51

CCCCOC(=O)NS(=O)(=O)c1sc(CC(C)C)cc1-c1ccc(Cn2ccnc2)cc1 [Compound C21, N-butyloxycarbonyl-3-(4-imidazol-1-ylmethylphenyl)-5-isobutylthiophene-2-sulfonamide]
level of circulating biomarker of inflammation CRP, versus placebo (SARS-CoV-2 infection; 100 mg b.i.d., 7 days): no significant differences | level of circulating biomarker of inflammation IL-6, versus placebo (SARS-CoV-2 infection; 100 mg b.i.d., 7 days): no significant differences | level of circulating biomarker of inflammation TNF, versus placebo (SARS-CoV-2 infection; 100 mg b.i.d., 7 days): no significant differences | tolerability (SARS-CoV-2 infection; 100 mg b.i.d., 7 days, COVID-19 patients): well tolerated | deaths (SARS-CoV-2 infection; 100 mg b.i.d., 7 days, n=51): 1 | number of patients needing mechanical ventilation (SARS-CoV-2 infection; 100 mg b.i.d., 7 days, n=51): 1 | total number of reported adverse events (SARS-CoV-2 infection; 100 mg b.i.d., 7 days, n=51): 64 | beneficial effect on need of oxygen supply versus placebo (SARS-CoV-2 infection; 100 mg b.i.d., 7 days, C21 n=51 vs placebo n=56): statistically significant at the predefined 10% level | number of patients that needed oxygen supply (SARS-CoV-2 infection; [1]): 14 | patients that needed oxygen supply, share of group (SARS-CoV-2 infection; [1]): 27% | expression of AT2R (AT2R): increase the expression | expression of ACE2 (ACE2): increase the expression | pulmonary gas exchange or other relevant beneficial clinical effects (acute lung injury): not to improve | reduction of E-cadherin at lower concentrations (E-cadherin expression; 0.37, 1.1 and 3.3 μM of C21): did not reduce E-cadherin | effect on E-cadherin levels (E-cadherin expression; 0.37-10 μM): dose-dependently reduced
